# Experimental data from ChEMBL document CHEMBL4184331 (J Med Chem, 2018).
# Legend:
# Glucocorticoid receptor [1] = target: T1, Glucocorticoid receptor (Homo sapiens, UniProt P04150); experiment: biochemical
# T1 sequence (P04150 whole entry): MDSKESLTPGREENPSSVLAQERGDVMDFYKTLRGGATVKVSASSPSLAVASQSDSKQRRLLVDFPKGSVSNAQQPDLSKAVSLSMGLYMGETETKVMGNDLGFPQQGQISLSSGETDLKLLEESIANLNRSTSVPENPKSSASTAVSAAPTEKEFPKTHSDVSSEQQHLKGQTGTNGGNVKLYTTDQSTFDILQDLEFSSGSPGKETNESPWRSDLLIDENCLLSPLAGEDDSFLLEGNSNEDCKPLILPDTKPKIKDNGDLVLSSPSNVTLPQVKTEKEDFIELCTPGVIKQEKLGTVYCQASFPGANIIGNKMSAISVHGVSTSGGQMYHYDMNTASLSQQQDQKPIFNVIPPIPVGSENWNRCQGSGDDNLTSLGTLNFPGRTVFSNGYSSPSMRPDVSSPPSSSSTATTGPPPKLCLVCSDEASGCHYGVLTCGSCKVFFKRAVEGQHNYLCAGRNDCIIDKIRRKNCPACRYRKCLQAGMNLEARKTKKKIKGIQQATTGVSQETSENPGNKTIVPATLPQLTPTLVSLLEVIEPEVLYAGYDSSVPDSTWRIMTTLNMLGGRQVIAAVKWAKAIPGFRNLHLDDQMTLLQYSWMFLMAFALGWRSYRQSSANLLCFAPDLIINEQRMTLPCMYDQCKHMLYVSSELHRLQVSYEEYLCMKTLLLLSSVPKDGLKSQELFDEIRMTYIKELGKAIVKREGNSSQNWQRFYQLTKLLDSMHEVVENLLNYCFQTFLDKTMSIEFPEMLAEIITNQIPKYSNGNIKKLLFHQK
# Description: Displacement of [3H]dexamethasone from human recombinant glucocorticoid receptor expressed in insect cells after 24 hrs by scintillation proximity assay
# Glucocorticoid receptor [2] = target: T1, Glucocorticoid receptor
# Description: Induction of nuclear translocation of human recombinant ProLabel-tagged glucocorticoid receptor expressed in CHO-K1 cells after 3 hrs by luminescence method
# RAW264.7 = experiment: cells; details: Mus musculus
# Description: Antiinflammatory activity in mouse RAW264.7 cells assessed as inhibition of LPS-induced nitric oxide release preincubated for 15 mins followed by LPS challenge measured after 18 hrs by Griess assay
# [3] = target: T2, Mineralocorticoid receptor (Homo sapiens, UniProt P08235)
# T2 sequence (P08235 whole entry): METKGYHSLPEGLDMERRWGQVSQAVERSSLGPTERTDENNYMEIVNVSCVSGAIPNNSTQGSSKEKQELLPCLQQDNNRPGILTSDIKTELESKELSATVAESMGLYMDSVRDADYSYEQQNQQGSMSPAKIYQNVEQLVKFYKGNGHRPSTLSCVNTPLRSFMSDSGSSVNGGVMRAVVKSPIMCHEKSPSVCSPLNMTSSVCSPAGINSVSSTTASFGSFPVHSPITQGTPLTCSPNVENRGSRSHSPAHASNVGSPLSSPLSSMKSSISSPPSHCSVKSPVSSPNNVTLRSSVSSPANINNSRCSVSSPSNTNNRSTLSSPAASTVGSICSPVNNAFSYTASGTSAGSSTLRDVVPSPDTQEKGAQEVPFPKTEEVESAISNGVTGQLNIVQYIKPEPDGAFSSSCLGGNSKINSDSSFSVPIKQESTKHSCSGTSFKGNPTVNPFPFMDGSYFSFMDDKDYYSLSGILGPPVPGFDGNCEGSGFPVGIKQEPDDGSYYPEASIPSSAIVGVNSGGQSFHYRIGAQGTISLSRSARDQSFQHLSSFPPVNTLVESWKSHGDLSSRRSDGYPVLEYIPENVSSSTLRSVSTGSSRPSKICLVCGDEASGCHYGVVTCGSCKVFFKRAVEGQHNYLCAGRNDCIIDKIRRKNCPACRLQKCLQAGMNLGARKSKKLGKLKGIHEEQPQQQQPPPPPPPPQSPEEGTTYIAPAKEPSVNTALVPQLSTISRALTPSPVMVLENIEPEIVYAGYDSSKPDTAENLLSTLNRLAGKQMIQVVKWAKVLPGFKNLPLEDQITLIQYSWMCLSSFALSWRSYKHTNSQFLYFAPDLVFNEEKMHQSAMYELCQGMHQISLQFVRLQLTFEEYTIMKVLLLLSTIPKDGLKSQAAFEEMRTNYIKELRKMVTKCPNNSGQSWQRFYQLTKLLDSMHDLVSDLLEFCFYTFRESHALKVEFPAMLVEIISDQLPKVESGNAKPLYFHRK
# Description: Induction of nuclear translocation of human recombinant ProLabel-tagged mineralocorticoid receptor expressed in CHO-K1 cells after 3 hrs by luminescence method
# [4] = MRTlast in Sprague-Dawley rat plasma at 1 umol/kg, it by HPLC-MS/MS method; assay type: ADME, cell-free; details: inhaled or intranasal
# [5] = AUClast in Sprague-Dawley rat lung at 1 umol/kg, it by HPLC-MS/MS method; assay type: ADME, tissue-based; details: in vivo, inhaled_or_intranasal
# [6] = AUClast in Sprague-Dawley rat plasma at 1 umol/kg, it by HPLC-MS/MS method; assay type: ADME, cell-free; details: inhaled or intranasal
# [7] = MRTlast in Sprague-Dawley rat lung at 1 umol/kg, it by HPLC-MS/MS method; assay type: ADME, tissue-based; details: inhaled or intranasal
# [8] = Cmax in Sprague-Dawley rat lung at 1 umol/kg, it by HPLC-MS/MS method; assay type: ADME, tissue-based; design: dose 1 umol/kg; details: in vivo, inhaled_or_intranasal
# [9] = Cmax in Sprague-Dawley rat plasma at 1 umol/kg, it by HPLC-MS/MS method; assay type: ADME, cell-free; design: dose 1 umol/kg; details: inhaled or intranasal
# Description for physchem: Dissociation constant, pKa of the compound
SMILES,Ki (Glucocorticoid receptor [1]),EC50 (Glucocorticoid receptor [2]),pKa (physchem),IC50 (RAW264.7),further results
COC(=O)[C@@]12CN(Cc3ccccc3)C[C@@H]1C[C@H]1[C@@H]3C[C@H](F)C4=CC(=O)C=C[C@]4(C)[C@@]3(F)[C@@H](O)C[C@@]12C,0.71 nM,5.7 nM,7.12,,
C[C@]12C=CC(=O)C=C1[C@@H](F)C[C@H]1[C@@H]3C[C@H]4CN(c5ccc(Cl)cc5)C[C@@]4(C(=O)CO)[C@@]3(C)C[C@H](O)[C@@]12F,0.67 nM,8.5 nM,4.42,0.66 nM,
C[C@]12C=CC(=O)C=C1[C@@H](F)C[C@H]1[C@@H]3C[C@H]4CN(Cc5cccnc5)C[C@@]4(C(=O)CO)[C@@]3(C)C[C@H](O)[C@@]12F,,63.9 nM,4.11,,
C[C@]12C=CC(=O)C=C1[C@@H](F)C[C@H]1[C@@H]3C[C@H]4CN(Cc5ccc6ccccc6n5)C[C@@]4(C(=O)CO)[C@@]3(C)C[C@H](O)[C@@]12F,0.71 nM,31.2 nM,3.42,11.9 nM,
C[C@]12C=CC(=O)C=C1[C@@H](F)C[C@H]1[C@@H]3C[C@H]4CN(c5ccccc5)C[C@@]4(C(=O)CO)[C@@]3(C)C[C@H](O)[C@@]12F,0.39 nM,1.3 nM,8.82,0.34 nM,
C[C@]12C=CC(=O)C=C1[C@@H](F)C[C@H]1[C@@H]3C[C@H]4CN(Cc5ccccc5)C[C@@]4(C(=O)CF)[C@@]3(C)C[C@H](O)[C@@]12F,0.52 nM,3.4 nM,6.87,,
C[C@]12C=CC(=O)C=C1[C@@H](F)C[C@H]1[C@@H]3C[C@H]4CN(c5ccccc5)C[C@@]4(C(=O)CF)[C@@]3(C)C[C@H](O)[C@@]12F,0.52 nM,3.2 nM,8.74,1.38 nM,
C[C@]12C=CC(=O)C=C1[C@@H](F)C[C@H]1[C@@H]3C[C@H]4CN(CC5CC5)C[C@@]4(C(=O)CO)[C@@]3(C)C[C@H](O)[C@@]12F,,15.2 nM,7.83,,
CN(C)C(=O)[C@@]12CN(Cc3ccccc3)C[C@@H]1C[C@H]1[C@@H]3C[C@H](F)C4=CC(=O)C=C[C@]4(C)[C@@]3(F)[C@@H](O)C[C@@]12C,1.1 nM,40.3 nM,7.3,,EC50 [3]: > 3000 nM
Cc1cccc(CN2C[C@@H]3C[C@H]4[C@@H]5C[C@H](F)C6=CC(=O)C=C[C@]6(C)[C@@]5(F)[C@@H](O)C[C@]4(C)[C@]3(C(=O)CO)C2)c1,0.52 nM,11.3 nM,7.27,0.3 nM,
Cc1ccc(CN2C[C@@H]3C[C@H]4[C@@H]5C[C@H](F)C6=CC(=O)C=C[C@]6(C)[C@@]5(F)[C@@H](O)C[C@]4(C)[C@]3(C(=O)CO)C2)cc1,0.52 nM,8.4 nM,7.11,0.16 nM,
C[C@]12C=CC(=O)C=C1[C@@H](F)C[C@H]1[C@@H]3C[C@H]4CN(C(=O)c5ccccc5)C[C@@]4(C(=O)CO)[C@@]3(C)C[C@H](O)[C@@]12F,,248 nM,,,
C[C@]12C=CC(=O)C=C1[C@@H](F)C[C@H]1[C@@H]3C[C@H]4CN(Cc5cccc(Cl)c5)C[C@@]4(C(=O)OCF)[C@@]3(C)C[C@H](O)[C@@]12F,0.57 nM,20.8 nM,6.58,,
C[C@]12C=CC(=O)C=C1[C@@H](F)C[C@H]1[C@@H]3C[C@H]4CN(Cc5cccc(Cl)c5)C[C@@]4(C(=O)CO)[C@@]3(C)C[C@H](O)[C@@]12F.Cl,,,,,MRT last [4]: 1.1 h; AUClast [5]: 9 nmol·h/g; AUC(0-t) [6]: 0.12 µM·h; MRT last [7]: 6.4 h; Cmax [8]: 9.03 nmol/g; Cmax [9]: 90 nM
C[C@]12C=CC(=O)C=C1[C@@H](F)C[C@H]1[C@@H]3C[C@H]4CN(Cc5cccc(Cl)c5)C[C@@]4(C(=O)SCF)[C@@]3(C)C[C@H](O)[C@@]12F,,45 nM,,,EC50 [3]: > 3000 nM
C[C@]12C=CC(=O)C=C1[C@@H](F)C[C@H]1[C@@H]3C[C@H]4CN(Cc5ccc(CSc6ccc(O)cc6)cc5)C[C@@]4(C(=O)CO)[C@@]3(C)C[C@H](O)[C@@]12F,0.62 nM,2.1 nM,6.95,0.44 nM,EC50 [3]: 1.6 nM
CC(C)CCN1C[C@@H]2C[C@H]3[C@@H]4C[C@H](F)C5=CC(=O)C=C[C@]5(C)[C@@]4(F)[C@@H](O)C[C@]3(C)[C@]2(C(=O)CO)C1,1.9 nM,3.4 nM,7.98,0.22 nM,
CN1C[C@@H]2C[C@H]3[C@@H]4C[C@H](F)C5=CC(=O)C=C[C@]5(C)[C@@]4(F)[C@@H](O)C[C@]3(C)[C@]2(C(=O)CO)C1,,54.9 nM,7.91,,
C[C@]12C=CC(=O)C=C1[C@@H](F)C[C@H]1[C@@H]3C[C@H]4CN(c5cccc(Cl)c5)C[C@@]4(C(=O)CO)[C@@]3(C)C[C@H](O)[C@@]12F,0.52 nM,5.8 nM,4.06,0.4 nM,
C[C@]12C=CC(=O)C=C1[C@@H](F)C[C@H]1[C@@H]3C[C@H]4CN(Cc5ccccc5)C[C@@]4(C(=O)CO)[C@@]3(C)C[C@H](O)[C@@]12F,0.66 nM,1.7 nM,6.96,0.15 nM,
C[C@]12C=CC(=O)C=C1[C@@H](F)C[C@H]1[C@@H]3C[C@H]4CN(Cc5ccccc5)C[C@@]4(C(=O)NCc4ccccc4)[C@@]3(C)C[C@H](O)[C@@]12F,9.8 nM,50 nM,7.05,,
C[C@]12C=CC(=O)C=C1[C@@H](F)C[C@H]1[C@@H]3C[C@H]4CN(C(=O)OCc5ccccc5)C[C@@]4(C(=O)CO)[C@@]3(C)C[C@H](O)[C@@]12F,0.66 nM,44.1 nM,,,
C[C@]12C=CC(=O)C=C1[C@@H](F)C[C@H]1[C@@H]3C[C@H]4CN(Cc5ccc(Cl)cc5)C[C@@]4(C(=O)CO)[C@@]3(C)C[C@H](O)[C@@]12F,,1.3 nM,6.72,0.25 nM,
CC(C)CCN1C[C@@H]2C[C@H]3[C@@H]4C[C@H](F)C5=CC(=O)C=C[C@]5(C)[C@@]4(F)[C@@H](O)C[C@]3(C)[C@]2(C(=O)SCF)C1,4.8 nM,57 nM,,,EC50 [3]: > 3000 nM
CC(=O)[C@@]12CN(Cc3cccc(Cl)c3)C[C@@H]1C[C@H]1[C@@H]3C[C@H](F)C4=CC(=O)C=C[C@]4(C)[C@@]3(F)[C@@H](O)C[C@@]12C,0.57 nM,7.7 nM,6.9,1.4 nM,
C[C@]12C=CC(=O)C=C1[C@@H](F)C[C@H]1[C@@H]3C[C@H]4CN(S(=O)(=O)c5cccs5)C[C@@]4(C(=O)CO)[C@@]3(C)C[C@H](O)[C@@]12F,0.66 nM,7.4 nM,,3.68 nM,
